Tests used:
[1] = Inhibition of rabbit erythrocyte S-adenosylhomocysteine hydrolase; design: species or system Oryctolagus cuniculus
Dengue virus = test: Antiviral activity against Dengue virus infected in african green monkey Vero cells assessed as inhibition of viral-induced cytopathicity; assay type: functional, organism-based
[2] = Cytotoxicity against african green monkey Vero cells; assay type: cell-based; conditions: chlorocebus sabaeus
Norovirus = test: Antiviral activity against Norovirus infected in HG23 cells assessed as inhibition of viral-induced cytopathicity; assay type: functional, cell-based
Human betaherpesvirus 5 = test: Antiviral activity against human cytomegalovirus infected in HFF cells assessed as inhibition of viral-induced cytopathicity; assay type: functional, organism-based; conditions: Human betaherpesvirus 5, HFF
[3] = Cytotoxicity against human HG23 cells; assay type: cell-based
Hepatitis B virus = test: Antiviral activity against Hepatitis B virus infected in HepG2.2.15 cells assessed as inhibition of viral-induced cytopathicity; assay type: functional, organism-based, HepG2 2.2.15
Vaccinia virus = test: Antiviral activity against Vaccinia virus infected in HFF cells assessed as inhibition of viral-induced cytopathicity; assay type: functional, organism-based, Orthopoxvirus vaccinia
Ebolavirus = test: Antiviral activity against Ebolavirus Zaire infected in african green monkey Vero cells assessed as inhibition of viral-induced cytopathicity; assay type: functional, cell-based; conditions: Orthoebolavirus
Measles morbillivirus = test: Antiviral activity against Measles virus infected in african green monkey Vero cells assessed as inhibition of viral-induced cytopathicity; assay type: functional, organism-based
[4] = Selectivity index, ratio of CC50 for african green monkey Vero cells to EC50 for Ebola virus Zaire virus; assay type: toxicity, cell-based; conditions: read-out: Selectivity Index
[5] = Cytotoxicity against human HFF cells; assay type: cell-based
[6] = Selectivity index, ratio of CC50 for human HG23 cells to EC50 for Norovirus; assay type: toxicity, cell-based; conditions: read-out: Selectivity Index
[7] = Selectivity index, ratio of CC50 for human HFF cells to EC50 for Vaccinia virus; assay type: toxicity, cell-based; conditions: read-out: Selectivity Index
[8] = Selectivity index, ratio of CC50 for human HepG2.2.15 cells to EC90 for Hepatitis B virus; assay type: toxicity; conditions: read-out: Selectivity Index
[9] = Selectivity index, ratio of CC50 for african green monkey Vero cells to EC50 for Dengue virus; assay type: toxicity, cell-based; conditions: read-out: Selectivity Index
[10] = Cytotoxicity against human HepG2.2.15 cells; assay type: cell-based, HepG2 2.2.15
[11] = Selectivity index, ratio of CC50 for human HepG2.2.15 cells to EC50 for Hepatitis B virus; assay type: toxicity; conditions: read-out: Selectivity Index
[12] = Selectivity index, ratio of CC50 for human HFF cells to EC90 for Vaccinia virus; assay type: toxicity, cell-based; conditions: read-out: Selectivity Index
[13] = Selectivity index, ratio of CC50 for human HFF cells to EC50 for human cytomegalovirus; assay type: toxicity, cell-based; conditions: read-out: Selectivity Index
[14] = Selectivity index, ratio of CC50 for african green monkey Vero cells to EC50 for Measles virus; assay type: toxicity, cell-based; conditions: read-out: Selectivity Index
[15] = Selectivity index, ratio of CC50 for human HFF cells to EC90 for human cytomegalovirus; assay type: toxicity, cell-based; conditions: read-out: Selectivity Index
[16] = Selectivity index, ratio of CC50 for human HG23 cells to EC90 for Norovirus; assay type: toxicity, cell-based; conditions: read-out: Selectivity Index

**Q.** For `Nc1ncnc2c1ncn2[C@@H]1C=C(CO)[C@@H](O)[C@H]1O` [NEOPLANOCIN A], which IC50 [1] is on record?
**A.** 0.9 nM

**Q.** For `Nc1ncnc2c1ncn2C1=C[C@@H](CO)[C@H](O)[C@@H]1O`, which EC50 (Dengue virus) is on record?
**A.** 1300 nM

**Q.** And the CC50 [2]?
**A.** 11.4 µM

**Q.** And the EC50 (Norovirus)?
**A.** 11 µM

**Q.** What about the EC90 (Norovirus) of the same compound?
**A.** 89 µM

**Q.** What about the EC50 (Human betaherpesvirus 5) of the same compound?
**A.** 3700 nM

**Q.** And the EC90 (Human betaherpesvirus 5)?
**A.** 6.86 µM

**Q.** What about the CC50 [3] of the same compound?
**A.** > 300 µM

**Q.** What about the EC50 (Hepatitis B virus; hepg2 2.2.15) of the same compound?
**A.** Not Active

**Q.** And the EC50 (Vaccinia virus; hff)?
**A.** Not Active

**Q.** What about the EC50 (Ebolavirus) of the same compound?
**A.** 760 nM

**Q.** What about the EC50 (Measles morbillivirus) of the same compound?
**A.** 720 nM

**Q.** With `Nc1ncnc2c1ncn2C1=C[C@H](CO)[C@@H](O)[C@H]1O` as the compound, how does the selectivity ratio [4] read?
**A.** 3.5

**Q.** What about the EC50 (Dengue virus) of the same compound?
**A.** 1100 nM

**Q.** What about the CC50 [5] of the same compound?
**A.** > 49.3 µM

**Q.** What about the selectivity ratio [6] of the same compound?
**A.** > 128

**Q.** And the selectivity ratio [7]?
**A.** > 30

**Q.** And the selectivity ratio [8]?
**A.** > 3

**Q.** And the CC50 [2]?
**A.** 1.3 µM

**Q.** What about the selectivity ratio [9] of the same compound?
**A.** 17

**Q.** What about the CC50 [10] of the same compound?
**A.** > 100 µM

**Q.** What about the selectivity ratio [11] of the same compound?
**A.** > 14

**Q.** And the EC50 (Norovirus)?
**A.** 0.784 µM

**Q.** And the EC50 (Human betaherpesvirus 5)?
**A.** 110 nM

**Q.** What about the EC90 (Human betaherpesvirus 5) of the same compound?
**A.** > 10 µM

**Q.** What about the CC50 [3] of the same compound?
**A.** > 100 µM

**Q.** What about the selectivity ratio [12] of the same compound?
**A.** 1

**Q.** And the selectivity ratio [13]?
**A.** 448

**Q.** And the IC50 [1]?
**A.** 0.9 nM

**Q.** And the selectivity ratio [14]?
**A.** > 3.5

**Q.** And the EC90 (Hepatitis B virus; Hepatitis B virus, HepG2 2.2.15)?
**A.** 35 µM

**Q.** What about the EC50 (Hepatitis B virus; Hepatitis B virus, HepG2 2.2.15, read-out: EC50) of the same compound?
**A.** 7.2 µM

**Q.** What about the selectivity ratio [15] of the same compound?
**A.** < 4

**Q.** And the selectivity ratio [16]?
**A.** > 11

**Q.** What about the EC90 (Vaccinia virus; Orthopoxvirus vaccinia, HFF) of the same compound?
**A.** > 300 µM

**Q.** And the EC50 (Vaccinia virus; Orthopoxvirus vaccinia, HFF, read-out: EC50)?
**A.** 10.1 µM

**Q.** What about the EC50 (Ebolavirus) of the same compound?
**A.** 380 nM

**Q.** And the EC50 (Measles morbillivirus)?
**A.** < 380 nM
